# From patent US20250057944A1, “OLIGOSACCHARIDE COMPLEXES AND USES” (BioNTech SE, priority 2021, published 2025)
# What was measured:
# BALB/c mice [1] = assay: In-vivo luciferase expression in applied tissue after i.m. application of RNA complexes; conditions: N/P 6 (FIG. 7B)
# BALB/c mice [2] = conditions: mouse, in vivo
# [3] = Hydrodynamic diameter of complexes by dynamic light scattering; assay type: physicochemical
# Experimental: Sizes of complexes described in the present examples were analyzed by DynaPro PlateReader II, using dynamic light scattering (DLS) for calculating the hydrodynamic diameter of complexes. […] Ten acquisitions are recorded per well, each lasting 5 seconds.
# BALB/c mice [4] = conditions: mouse, in vivo; remark: listed apart in the source
# C57BL/6 IFNAR −/− mice = assay type: in vivo
# BALB/c mice [5] = assay: Intramuscular vaccination with HA modRNA formulated with oligosaccharide+Tween40 (Example 10); conditions: mouse, in vivo
# hPBMCs = assay: Cytokine secretion by hPBMCs 24 h after transfection with modRNA formulations (MSD kit); assay type: cell-based, human; conditions: oligosaccharide:Tween40 1:0.5, modRNA, N/P 6, 24 hours (FIGS. 19A-D)
# Experimental: All groups received modRNA formulated at N/P 6. Formulations were complexed with RNA in MBG Buffer (final concentration 5% w/v Glucose, 10 mM MES, pH 6.1), at RNA final concentration of 0.15 mg/ml and the mixing ratio of the RNA containing solution and the oligosaccharide+Tween40 containing solution was 9:1 (v:v) for all the cases. IL-6, TNF-α, IL-1β and IFN-γ secretion after 24 hours of transfection of […] hPMBCs was evaluated in the supernatants using MSD Kit Standard Protocol.
structure (smiles),measurement,setting,value
CCCCCCCCCC(=O)OC1C(OC(=O)CCCCCCCCC)[C@H](OC(=O)CCCCCCCCC)C(CSCCNC(=S)NCCN2CCOCC2)O[C@@H]1O[C@H]1OC(CSCCNC(=S)NCCN2CCOCC2)[C@@H](OC(=O)CCCCCCCCC)C(OC(=O)CCCCCCCCC)C1OC(=O)CCCCCCCCC (stereo partly drawn) [JLF99],modRNA expression (bioluminescence normalized to the JLF41-modRNA group),BALB/c mice [1],promising modRNA expression
same,CD4-CD8 response versus LNP benchmark,BALB/c mice [2],no significant difference
same,IgG against HA-antigen over the course of the experiment versus LNP benchmark,BALB/c mice [2],no apparent differences
same,Serological concentration of IgG at the end-point (day 49),BALB/c mice [2],comparable to the LNP group
same,Hydrodynamic diameter,"[3]; saRNA, N/P 6 (FIG. 5A)",about 150 nm
same,Delivery of RNAs and immune response,BALB/c mice [4],functionally delivered all the RNAs upon i.m injection and elicited a strong immune response
same,Immunological response with CCHFV-Gc antigen,"C57BL/6 IFNAR −/− mice; JLF99+Tween40 1:0.5, 1.3 μg saRNA i.m., prime/boost d0/d28, N/P6",strong immunological response
same,Antibody level versus LNP,"C57BL/6 IFNAR −/− mice; mouse, in vivo",lower than the LNP
same,Antibody levels versus LNP benchmark,"C57BL/6 IFNAR −/− mice; mouse, in vivo",identical to the ones achieved by the LNP benchmark
same,T-cell responses against Gc-peptides,"C57BL/6 IFNAR −/− mice; mouse, in vivo",equally strong
CCCCCCCCCC(=O)OC[C@@]1(O[C@H]2OC(CSCCNC(=S)NCCN3CCOCC3)[C@@H](OC(=O)CCCCCCCCC)[C@H](OC(=O)CCCCCCCCC)C2OC(=O)CCCCCCCCC)O[C@H](CSCCNC(=S)NCCN2CCOCC2)[C@@H](OC(=O)CCCCCCCCC)[C@@H]1OC(=O)CCCCCCCCC (stereo partly drawn) [JLF218],IgG concentration against HA,BALB/c mice [5],then by JLF99 and JLF218
CCCCCCCCCC(=O)OC1C(OC(=O)CCCCCCCCC)[C@H](OC(=O)CCCCCCCCC)C(CSCCNC(=S)NCCN(C)C)O[C@@H]1O[C@H]1OC(CSCCNC(=S)NCCN(C)C)[C@@H](OC(=O)CCCCCCCCC)C(OC(=O)CCCCCCCCC)C1OC(=O)CCCCCCCCC (stereo partly drawn) [JLF41],Difference in particle size between N/P 1 and N/P 6,[3]; modRNA (FIG. 6A),greater difference in particle size
CCCCCCCCCC(=O)OC1C(OC(=O)CCCCCCCCC)[C@H](OC(=O)CCCCCCCCC)C(CSCCNC(=S)NCCn2ccnc2)O[C@@H]1O[C@H]1OC(CSCCNC(=S)NCCn2ccnc2)[C@@H](OC(=O)CCCCCCCCC)C(OC(=O)CCCCCCCCC)C1OC(=O)CCCCCCCCC (stereo partly drawn) [JLF110],"Level of secretion of pro-inflammatory cytokines, IL-6, TNF-α, IL-1β and IFN-γ",hPBMCs,medium levels of secretion
CCCCCCCCCC(=O)OC1C(OC(=O)CCCCCCCCC)[C@H](OC(=O)CCCCCCCCC)C(CSCCNC(=S)NCCN2CCC(C(N)=O)CC2)O[C@@H]1O[C@H]1OC(CSCCNC(=S)NCCN2CCC(C(N)=O)CC2)[C@@H](OC(=O)CCCCCCCCC)C(OC(=O)CCCCCCCCC)C1OC(=O)CCCCCCCCC (stereo partly drawn) [JLF244],IgG concentration against HA,BALB/c mice [5],highest IgG concentration
same,"Level of secretion of pro-inflammatory cytokines, IL-6, TNF-α, IL-1β and IFN-γ",hPBMCs,highest level of secretion
